The values below come from PMC9200688, “The production and biochemical characterization of α-carbonic anhydrase from Lactobacillus rhamnosus GG” (Applied Microbiology and Biotechnology, 2022).

Entries after “also recorded” stand apart in the source; their conditions may differ.

The target in one test is T1, α-carbonic anhydrase of L. rhamnosus (LrhCA) (Lacticaseibacillus rhamnosus, UniProt A0A809N5C7).
T1 sequence (A0A809N5C7 1-215): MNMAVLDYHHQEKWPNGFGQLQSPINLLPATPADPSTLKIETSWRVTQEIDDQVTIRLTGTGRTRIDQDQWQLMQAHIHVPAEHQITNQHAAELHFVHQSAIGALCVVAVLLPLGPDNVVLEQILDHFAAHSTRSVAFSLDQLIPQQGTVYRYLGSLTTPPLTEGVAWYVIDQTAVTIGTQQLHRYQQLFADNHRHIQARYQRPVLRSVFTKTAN
The test is described as follows: Sulfonamide inhibition of LrhCA, stopped-flow CO2 hydrase assay. Type of test: biochemical, Lactobacillus rhamnosus GG. To be noted: Ki LrhCA.
For the molecule `Nc1ccc(S(=O)(=O)Nc2nnc(S(N)(=O)=O)s2)cc1`, the Ki (as a rule, the equilibrium dissociation constant of an inhibitor or competing ligand from its target) came out at 0.319 µM.

For `CCN[C@H]1CN(CCCOC)S(=O)(=O)c2sc(S(N)(=O)=O)cc21` [BRZ, brinzolamide, reference compound], the Ki came out at 0.433 µM.

In the case of `NS(=O)(=O)c1nnc(NS(=O)(=O)c2ccccc2)s1` [BZA, benzolamide, reference compound], affinity was put at a Ki of 0.387 µM.

`NS(=O)(=O)c1ccc(S(=O)(=O)Nc2cccc3c(Cl)c[nH]c23)cc1` [IND, indisulam, reference compound] gave a Ki of over 10 µM.

With `CC(=O)/N=c1/sc(S(N)(=O)=O)nn1C` [MZA, methazolamide, reference compound], affinity was put at a Ki of 0.837 µM.

Turning to `O=C1NS(=O)(=O)c2ccccc21` [SAC, saccharin, reference compound], the Ki was over 10 µM.

Consider `NS(=O)(=O)c1ccc(N2CCCCS2(=O)=O)cc1` [SLT, reference compound], for which the Ki worked out at 9.31 µM.

The molecule `CC1(C)O[C@@H]2[C@@H](CO[C@@]3(COS(N)(=O)=O)OC(C)(C)O[C@@H]23)O1` [TPM, topiramate, reference compound] yielded an inhibitory constant (Ki) of 0.508 µM.

Molecule `Cc1onc(-c2ccccc2)c1-c1ccc(S(N)(=O)=O)cc1` [VLX, valdecoxib, reference compound] returned an inhibition constant (Ki) of over 10 µM.

The molecule `NS(=O)(=O)Cc1noc2ccccc12` [ZNS, reference compound] came in with a Ki of 8.95 µM.

As to `Cc1ccc(S(N)(=O)=O)cc1` [compound 4], the affinity corresponds to a Ki of 5.6 µM.

`Nc1ccc(S(N)(=O)=O)cc1Cl` [compound 8]: the Ki is 8.98 µM.

In turn, `Nc1ccc(S(N)(=O)=O)cc1Br` [compound 9, 3-bromo-4-amino-benzenesulfonamide] gave a Ki of over 10 µM.

`Nc1cc(C(F)(F)F)c(S(N)(=O)=O)cc1S(N)(=O)=O` [compound 11] showed a Ki of 7.56 µM.

Take `Nc1cc(Cl)c(S(N)(=O)=O)cc1S(N)(=O)=O` [compound 12]: the Ki worked out at 7.93 µM.

`Nc1nnc(S(N)(=O)=O)s1` [compound 13, 5-amino-1,3,4-thiadizole-2-sulfonamide]: the affinity corresponds to a Ki of 0.866 µM.

Consider `NS(=O)(=O)c1ccc(CO)cc1` [compound 16], for which the affinity, expressed as Ki, was 6.01 µM.

With `NS(=O)(=O)c1ccc(C(=O)O)cc1` [compound 18], the inhibition constant (Ki) stood at 2.71 µM.

`Nc1nccc(Nc2ccc(S(N)(=O)=O)cc2)n1` [compound 19] yielded a Ki of 4.41 µM.

Staying with this test, now noted: stopped-flow CO2 hydrase assay; mean from three different assays, errors 5–10%; recombinant LrhCA; 15 min preincubation at room temperature; read-out: Ki LrhCA.
Take `NS(=O)(=O)c1ccc(CCNS(=O)(=O)c2ccc([N+](=O)[O-])cc2CO)cc1`: the inhibition constant Ki amounted to 0.378 µM.

As to “4-(2-hydroxymethyl-4-nitrophenyl-sulfonamido)ethylbenzenesulfonamide [compound 24]”, the Ki turned out to be 0.403 µM.

Consider “4-(4-sulfanilyl-aminomethyl)-benzenesulfonamide [compound 23]”, for which the Ki was determined as 0.487 µM.

For the molecule `NS(=O)(=O)c1cc2c(cc1Cl)NCNS2(=O)=O` [HCT, hydrochlorothiazide, reference compound], the Ki is over 10 µM.

In the case of `NS(=O)(=O)c1cccc(S(N)(=O)=O)c1` [compound 3], the Ki turned out to be 3.02 µM.

As for `NCc1ccc(S(N)(=O)=O)cc1` [compound 5, 4-aminomethyl-benzenesulfonamides], the Ki is over 10 µM.

For the molecule `NS(=O)(=O)c1cc(Cl)cc(Cl)c1O` [compound 10], the Ki stood at 5.03 µM.

As for `Nc1ccc(S(=O)(=O)Nc2ccc(S(N)(=O)=O)cc2)cc1` [compound 22], the inhibition constant (Ki) worked out at 0.559 µM.

For another test, the target named is hCA I (human carbonic anhydrase isozyme I).
Experiment: not given
As to conditions: human recombinant isozyme; stopped-flow CO2 hydrase assay; data published previously, ref Supuran [2008]; cited from earlier work.
In the case of `O=C1NS(=O)(=O)c2ccccc21` [SAC, saccharin, reference compound], the inhibition constant (Ki) was 18.5 µM.

On to `NS(=O)(=O)c1cccc(S(N)(=O)=O)c1` [compound 3], for which the Ki was 0.079 µM.

Regarding `Cc1ccc(S(N)(=O)=O)cc1` [compound 4], the Ki is 78.5 µM.

In the next test the test system is L. rhamnosus GG. Put plainly: In vitro inhibition assay with acetazolamide: growth of L. rhamnosus GG culture (OD595). As to conditions: AAZ 1 nM to 10 mM in MRS, 37 °C, anaerobic and aerobic, 96 h, OD595 at 0, 24, 48, 72, 96 h.
`CC(=O)Nc1nnc(S(N)(=O)=O)s1` [AAZ, acetazolamide]: the “Effect of acetazolamide on cell growth of L. rhamnosus GG (OD595)” value (“Effect of acetazolamide” below) is reported as “very little or no inhibitory effect on cell growth; also recorded: no significant effect on the growth”.

The test is the same for the next values; noted with them: AAZ 1 nM to 10 mM in MRS, 37 °C, anaerobic and aerobic, 96 h, OD595 at 0, 24, 48, 72, 96 h; listed as Acetazolamide.
Regarding `CC(=O)Nc1nnc(S(N)(=O)=O)s1` [AAZ, acetazolamide], the “Effect of acetazolamide” value is reported as “marginal inhibitory effect on cell growth”.

The same test, now with this note: AAZ 1 nM to 10 mM in MRS, 37 °C, anaerobic and aerobic, 96 h, OD595 at 0, 24, 48, 72, 96 h; listed as acetazolamide.
Consider `CC(=O)Nc1nnc(S(N)(=O)=O)s1` [AAZ, acetazolamide], for which the “Effect of acetazolamide” value is listed as “no significant effect on cell growth”.
